This note sets out measurements from PMC6943638, “Lectin PLL3, a Novel Monomeric Member of the Seven-Bladed β-Propeller Lectin Family” (Molecules, 2019).

Usually Kd stands for a measure of binding affinity in units of concentration. A high value points to lower affinity.

Starred links: 1 amine or outer side, 2 acyl side, 3 side chain; linkers in the order of their positions; H or OH if unused. Residues, ends and D or L forms follow the SMILES beside them. Suc = O=C(CCC(=O)[*:2])[*:1]

T1 sequence (Q7N8I7 entry or part of it): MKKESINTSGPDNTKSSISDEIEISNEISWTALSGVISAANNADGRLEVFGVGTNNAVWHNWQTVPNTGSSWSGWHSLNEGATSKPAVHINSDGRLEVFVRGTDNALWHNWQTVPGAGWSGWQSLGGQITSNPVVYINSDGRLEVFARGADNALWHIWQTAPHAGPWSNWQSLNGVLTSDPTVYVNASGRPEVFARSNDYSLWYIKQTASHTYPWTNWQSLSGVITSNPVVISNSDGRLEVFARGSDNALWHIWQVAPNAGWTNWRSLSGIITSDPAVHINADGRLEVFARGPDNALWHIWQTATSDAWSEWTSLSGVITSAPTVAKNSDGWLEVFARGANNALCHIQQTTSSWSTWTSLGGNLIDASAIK

The target in the first assay is T1, PLL3 (Photorhabdus laumondii subsp. laumondii, UniProt Q7N8I7). In words: Hemagglutination inhibition assay (PLL3 with erythrocytes of blood group O). Type of assay: cell-based. The following applies: PLL3 50 μM, blood group O erythrocytes; saccharide 100 to 0.1 mM. How it is done:
For the hemagglutination inhibition assay, the PLL3 was mixed with serially diluted saccharides (L-fucose, αMeFuc, D-galactose, D-glucose, and 3-O-methyl-D-glucose) dissolved in PBS buffer, and mixtures were incubated for 15 min at room temperature. Subsequently, erythrocytes of blood group O were added into the mixture with following incubation for 15 min. The final concentration was 50 μM for the PLL3 and 10% (v/v) for erythrocytes. Concentrations of L-fucose and αMeFuc ranged from 50 to 0.05 mM. Concentrations of D-galactose, D-glucose, and 3-O-methyl-D-glucose ranged from 100 to 0.1 mM. Each sample was observed under the optical microscope (Olympus IX81 with camera DP72; 200x magnification; SW CellSens Dimension, Olympus corporation, Tokyo, Japan).
Turning to `O=C[C@H](O)[C@@H](O)[C@@H](O)[C@H](O)CO` [D-galactose], the inhibition of hemagglutination result is on record as “did not inhibit hemagglutination”.

Another assay has as its target T1, PLL3. In words: Isothermal titration calorimetry (ITC). Type of assay: binding. The following applies: KD, stoichiometry fixed to 3, 25 °C. The procedure: ITC experiments were carried out using an AutoITC200 calorimeter (Malvern, UK) at 25 °C. The purified lectin was dialyzed against 20 mM Tris/HCl, 150 mM NaCl, pH 7.5 buffer before measurements. Individual ligands (L-fucose, αMeFuc, D-galactose, D-glucose, 3-O-methyl-D-glucose, and decavalent fucosylated glycoclusters 4a and 4b) were dissolved in the same buffer. PLL3 (100 μM) in the cell was titrated by the successive addition (2.0 μL) of the ligand in the syringe (20 mM for monosaccharides, 1 mM for multivalent fucosides). Experiments with monosaccharides were performed at stirring 750 rpm with a reference power of 10 μcal s^−1. Experiments with multivalent fucosides were performed at stirring 500 rpm with a reference power of 6 μcal s^−1. Titrations were carried out in three independent measurements for each ligand. Blank measurements were subtracted from collected data. For multivalent fucosides, two blank measurements were performed: titration of the buffer into the cell with PLL3 and titration of the buffer into the buffer. For monosaccharides, the additional blank measurement, the titration of a given ligand into the cell with buffer, was performed. The data were evaluated in software MicroCal PEAQ-ITC Analysis Software (Malvern, UK) by using the global fit method. Integrated heat effects were analyzed by nonlinear regression.
For orientation: Isothermal titration calorimetry measures the heat released or taken up as one component is titrated into another.
As for `O=C[C@H](O)[C@@H](O)[C@@H](O)[C@H](O)CO` [D-galactose], the Kd stood at 2800 ± 140 µM.

The same assay, now with this note: KD, stoichiometry fixed to 4, 25 °C.
On to `O=C[C@H](O)[C@@H](O)[C@@H](O)[C@H](O)CO` [D-galactose], for which binding was put at a Kd of 2700 ± 140 µM.

Still in this assay, the particulars now being: KD, stoichiometry fixed to 5, 25 °C.
For `O=C[C@H](O)[C@@H](O)[C@@H](O)[C@H](O)CO` [D-galactose], binding was put at a Kd of 2600 ± 130 µM.

Still in this assay, the particulars now being: KD, stoichiometry fixed to 6, 25 °C.
`O=C[C@H](O)[C@@H](O)[C@@H](O)[C@H](O)CO` [D-galactose] gave a Kd of 2500 ± 130 µM.

The same assay, now with this note: KD, stoichiometry fixed to 7, 25 °C.
`O=C[C@H](O)[C@@H](O)[C@@H](O)[C@H](O)CO` [D-galactose] showed a Kd of 2300 ± 130 µM.

For a further assay, the target named is T1, PLL3. In words: Glycan array screening with DyLight 488-labeled PLL3. It counts as binding. The following applies: glycan array signal of DyLight 488-labeled PLL3 per immobilized glycan or bacterial polysaccharide. From the text: Purified PLL3 protein was labeled with DyLight 488 NHS Ester (Thermo Scientific, Rockford, MI, USA) according to the manual instructions of the manufacturer. The unbound dye was removed from the solution using the Zeba Spin Desalting Column (Thermo scientific). The labeled lectin was used for glycan array screening using a glycan microarray chip (Semiotik, Moscow, Russia; chip format OSPS280715; slide number 10085636) containing over 600 mammalian and bacterial glycans (all in hexaplicates). The glycan microarray chip was incubated in 1.0 mL of PBS buffer supplemented with 0.1% (v/v) Tween 20 and placed in a humid chamber for 15 min (37 °C, 40 rpm). Then, the buffer was replaced by 0.5 mL PLL3 (200 μg mL^−1) diluted in PBS buffer with 0.1% Tween 20 and 1% (w/v) bovine serum albumin (Serva, Germany). After incubation (90 min, 37 °C, 40 rpm), the chip was washed by decreasing concentrations of PBS with 0.1% Tween 20, followed by multiple immersions in ultrapure water. Subsequently, the chip was dried by air blow. Fluorescence was read with a scanner InnoScan 1100 AL (Innopsys, Carbonne, France) with a 488 nm laser at 20 °C. The data were analyzed with the software Mapix 8.2.2 and an online glycan chip converter (Semiotik, https://rakitko.shinyapps.io/semiotik). The relative fluorescent response of PLL3 binding was calculated from hexaplicates of each glycan immobilized onto the chip. Only glycans with a response three or more times higher than trehalose and concurrently with a signal-to-noise ratio higher than two were considered as significant binders.
As to `O=C[C@@H](O)[C@@H](O)[C@H](O)[C@H](O)COP(=O)(O)O` [M6P], the Median turned out to be 148.
In turn, `CC(=O)N[C@@H]1C(O)C[C@](O[C@@H]2C(O)[C@H](O[C@@H]3C(CO)OC(NC(=O)CN)C(O)[C@H]3O)OC(CO)[C@@H]2O)(C(=O)O)OC1[C@H](O)[C@H](O)CO` (stereo partly shown) [3'SL-Gly] registered a Median of 101.
`OC[C@H]1O[C@H](O[C@H]2[C@@H](O)[C@@H](CO)OC(O)[C@@H]2O)[C@H](O)[C@@H](O)[C@H]1O` (stereo partly shown) [Bdi] returned a Median of 134.
The same measure, in the same setting: the value for `NCC(O)C(O)C(O)C(O)CO` (stereo not shown) [HOCH2(HOCH)4CH2NH2] was 293.
On the same count and under the same terms, the value for `CC(=O)N[C@H]1[C@@H](OC[C@H](N)C(=O)O)O[C@H](CO)[C@H](O)[C@@H]1O` [GalNAca1-OSer] was 208.
Same read-out and setting: the value for `CC(=O)N[C@H]1[C@H]([C@H](O)[C@H](O)CO)OC(OC[C@H]2O[C@@H](O[C@H]3[C@H](O)[C@@H](NC(C)=O)C(O)O[C@@H]3CO)[C@H](O)[C@@H](O)[C@H]2O)(C(=O)O)C[C@@H]1O` (stereo partly shown) [6'SLN] was 99; that for `COCC1OC(O)C(O)C(OC)C1O` (stereo not shown) [3,6-Me2Glc] was 74; that for `CC(=O)N[C@H]1[C@@H](O[C@H]2[C@@H](O)[C@@H](CO)OC(O)[C@@H]2O[C@@H]2O[C@@H](C)[C@@H](O)[C@@H](O)[C@@H]2O)O[C@H](CO)[C@H](O)[C@@H]1O` (stereo partly shown) [Atri] was 167.
`CC(=O)N[C@H]1[C@H]([C@H](O)[C@H](O)CO)O[C@@](O[C@H]2[C@@H](O)[C@@H](CO)O[C@@H](O[C@H]3[C@H](O)[C@@H](NC(C)=O)C(O)O[C@@H]3CO)[C@@H]2O)(C(=O)O)C[C@@H]1O` (stereo partly shown) [3'SLN]: the Median worked out at 43.
On the same count and under the same terms, the value for `CC(=O)N[C@H]1[C@H]([C@H](O)[C@H](O)CO)O[C@@](O[C@H](CO)[C@@H](O)[C@@H]2O[C@@](O[C@H](CO)[C@@H](O)[C@@H]3O[C@](O)(C(=O)O)C[C@H](O)[C@H]3NC(C)=O)(C(=O)O)C[C@H](O)[C@H]2NC(C)=O)(C(=O)O)C[C@@H]1O` [(Sia)3] was 158; that for `CC(=O)N[C@H]1[C@H](OCCCN)O[C@H](CO)[C@@H](O[C@@H]2O[C@H](CO)[C@H](O)[C@H](O)[C@H]2O)[C@@H]1O` [Galb1-4GlcNAcb-sp8] was 184; that for `CC(=O)N[C@@H]1[C@@H](O)[C@H](O[C@@H]2O[C@H](CO)[C@H](O)[C@H](O[C@H]3O[C@H](CO)[C@H](O)[C@H](O)[C@H]3NC(C)=O)[C@H]2O[C@@H]2O[C@@H](C)[C@@H](O)[C@@H](O)[C@@H]2O)[C@@H](CO)O[C@H]1O` [Atype2] was 158.
The same measure, in the same setting: in the case of `CC(=O)N[C@@H]1[C@@H](O)[C@H](O[C@@H]2O[C@H](CO)[C@@H](O)[C@H](O)[C@H]2NC(C)=O)[C@@H](CO)O[C@H]1NC(=O)C[C@H](N)C(=O)O` [GlcNAcb1-4GlcNAcb-Asn] it was 277.
Still for that read-out and setting: the value for `NCCOCCOCCOCCOCCOCCOCC(=O)NCCOC1OC(COC2OC(COC3OC(CO)C(O)C3OC3OC(CO)C(O)C3O)C(OC3OC(CO)C(O)C3OC3OC(CO)C(O)C3O)C2O)C(O)C1O` (stereo not shown) was 220; that for `CC(=O)N[C@H]1[C@H]([C@H](O)[C@H](O)CO)OC(O)(C(=O)O)C[C@@H]1O` (stereo partly shown) [Sia] was 112.

Still in this assay, the particulars now being: glycan array signal of DyLight 488-labeled PLL3 per printed glycan; Table S2, file PLU35_second_noheader.gpr.
The compound `OC[C@H]1O[C@@H](O[C@H]2[C@H](O)[C@@H](O)[C@H](O)O[C@@H]2CO)[C@H](O)[C@@H](O)[C@@H]1O` [cello] showed a Median of 672.
On the same count and under the same terms, the value for `CCCCCn1ccc2ccccc21` [NpentylIndol] was 872.
Still for that read-out and setting: in the case of `C[C@@H]1O[C@@H](O[C@H]2[C@H](O[C@H]3[C@H](O)[C@@H](O)[C@H](O)O[C@@H]3CO)O[C@H](CO)[C@H](O)[C@@H]2O)[C@@H](O)[C@H](O)[C@@H]1O` [Htype6] it was 474; in that of `O=P(O)(O)OC[C@H]1O[C@H](O)[C@H](O)[C@@H](O)[C@@H]1O` [G6P], 615; in that of Laminaran, 417.
Same read-out and setting: in the case of `CC(=O)N[C@H]1[C@H](O[C@H]2[C@@H](O)[C@@H](CO)O[C@@H](O[C@H]3[C@H](O)[C@@H](O)C(O)O[C@@H]3CO)[C@@H]2O)O[C@H](CO)[C@@H](O)[C@@H]1O[C@@H]1O[C@H](CO)[C@H](O)[C@H](O)[C@H]1O` (stereo partly shown) [LNT] it was 349.
In turn, `CC(C)C[C@H](NC(=O)CCC(=O)O)C(=O)N1CCC[C@H]1C(=O)N[C@@H](Cc1c[nH]c2ccccc12)C(=O)N[C@@H](Cc1ccc(O)cc1)C(=O)N[C@@H](CCCNC(=N)N)C(=O)N[C@@H](C)C(=O)N1CCC[C@H]1C(=O)N[C@@H](CCCCN)C(N)=O` [RhD] (Suc-LPWYRAPK-NH2) had a Median of 563.
Same read-out and setting: in the case of `CC(=O)N[C@H]1[C@H](O[C@H]2[C@@H](O)[C@@H](CO)O[C@@H](O[C@@H]([C@H](O)[C@@H](O)C=O)[C@H](O)CO)[C@@H]2O)O[C@H](CO[C@]2(C(=O)O)C[C@H](O)[C@@H](NC(C)=O)[C@H]([C@H](O)[C@H](O)CO)O2)[C@@H](O)[C@@H]1O[C@@H]1O[C@H](CO)[C@H](O)[C@H](O)[C@H]1O` [LSTb] it was 348.
As to `OC[C@H]1O[C@H](O[C@H]2O[C@H](CO)[C@@H](O)[C@H](O)[C@H]2O)[C@H](O)[C@@H](O)[C@@H]1O` [Treh], the Median stood at 2512.
The same measure, in the same setting: the value for Scleroglucan was 1150; that for Curdlan was 1158; that for Laminarin was 954.
Still for that read-out and setting: in the case of `NCC(=O)NCC(=O)NCC(=O)NCC(=O)NCC(=O)NCC(N)=O` [Gly6] it was 530.
Regarding Chitosan, the Median was determined as 1790.
On the same count and under the same terms, the value for `CC(=O)N[C@H]1[C@H](O[C@H]2[C@@H](O)[C@@H](CO)O[C@@H](O[C@H]3[C@H](O)[C@@H](O)C(O)O[C@@H]3CO)[C@@H]2O)O[C@H](CO)[C@@H](O)[C@@H]1O[C@@H]1O[C@H](CO)[C@H](O)[C@H](O[C@]2(C(=O)O)C[C@H](O)[C@@H](NC(C)=O)[C@H]([C@H](O)[C@H](O)CO)O2)[C@H]1O` (stereo partly shown) [LSTa] was 328.
On the same count and under the same terms, in the case of Mannan it was 480.
